Measurements taken from patent publication US6255497A, “Method for the inhibition of ALDH-I useful in the treatment of alcohol dependence or alcohol abuse” (priority 1998, dated 2001).
In brackets after ≈: the same amount, converted by molar mass.

Experiments:
ALDH-II [1] = target: T1, ALDH-II (Homo sapiens, UniProt P00352); assay: ALDH-II inhibition by structurally related compounds, acetaldehyde as substrate; assay type: biochemical; parameters: A liver sample (50 g wet weight) with the usual Caucasian ALDH phenotype (both ALDH-I and ALDH-II present); from tissue; host or cells: human liver (autopsy), purified by CM-52, AMP-agarose and DEAE HPLC
T1 sequence (P00352 1-501): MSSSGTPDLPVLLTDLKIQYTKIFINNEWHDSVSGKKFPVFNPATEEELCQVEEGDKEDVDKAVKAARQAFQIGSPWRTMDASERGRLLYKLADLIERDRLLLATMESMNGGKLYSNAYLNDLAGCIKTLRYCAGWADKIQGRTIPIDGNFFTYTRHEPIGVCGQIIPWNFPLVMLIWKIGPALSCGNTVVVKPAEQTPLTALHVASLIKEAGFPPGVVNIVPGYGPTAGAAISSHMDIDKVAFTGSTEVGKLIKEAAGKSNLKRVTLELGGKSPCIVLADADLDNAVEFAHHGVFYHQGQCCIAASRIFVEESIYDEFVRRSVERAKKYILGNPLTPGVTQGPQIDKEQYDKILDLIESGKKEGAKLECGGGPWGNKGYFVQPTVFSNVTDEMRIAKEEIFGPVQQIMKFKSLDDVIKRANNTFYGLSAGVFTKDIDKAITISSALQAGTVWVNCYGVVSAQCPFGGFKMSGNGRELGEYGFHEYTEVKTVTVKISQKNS
Method: *ALDH activities were assayed at 25° C. in 0.1 M sodium
pyrophosphate buffer pH 9.5 containins 0.15 M KCl, 1 mM NAD^+, various
concentrations of inhibitors and 5 and 200 μM acetaldehyde for ALDH-I
and ALDH-II, respectively.
For the study of the inhibition of ALDH-I by structurally related compounds to generate the data shown in Tables IV and V, each individual compound was dissolved at different concentrations in methanol and was added to the assay medium as 10 μL aliquots. For controls, 10 […] of methanol was added to the assay medium. In a standard ALDH-I assay, the assay medium contains 0.1 M sodium pyrophosphate pH 9.5, 0.15 M KCl, 1 mM NAD^+, 1% methanol, 5 μM acetaldehyde, 5-10 nM ALDH-I and various concentrations of inhibitor. The enzyme reaction rates were measured by monitoring the production of NADH at 340 nm (ε=6.22 mM^-1 cm^-1) with a Varian Cary 219 spectrophotometer thermostated at 25° C. (Fong et al., 1989, supra). The inhibition of ALDH-I by the inhibitors was calculated as: [formula]
where Vo is the enzyme reaction rate measured in the absence of inhibitor, and where Vi is the enzyme reaction rate measured in the presence of inhibitor. […] IC50 values are related to the underlying Ki values.

ADH isozymes = assay: Inhibition of ADH; assay type: biochemical, human
[2] = Solubility in water / aqueous media
rats = details: subcutaneous in propylene glycol; cited from earlier work
ALDH-I = target: T2, ALDH-I (Homo sapiens, UniProt P05091); assay: Inhibition kinetics of ALDH-I, initial velocity method, formaldehyde as substrate; details: from Ki values of Table II
T2 sequence (P05091 18-517): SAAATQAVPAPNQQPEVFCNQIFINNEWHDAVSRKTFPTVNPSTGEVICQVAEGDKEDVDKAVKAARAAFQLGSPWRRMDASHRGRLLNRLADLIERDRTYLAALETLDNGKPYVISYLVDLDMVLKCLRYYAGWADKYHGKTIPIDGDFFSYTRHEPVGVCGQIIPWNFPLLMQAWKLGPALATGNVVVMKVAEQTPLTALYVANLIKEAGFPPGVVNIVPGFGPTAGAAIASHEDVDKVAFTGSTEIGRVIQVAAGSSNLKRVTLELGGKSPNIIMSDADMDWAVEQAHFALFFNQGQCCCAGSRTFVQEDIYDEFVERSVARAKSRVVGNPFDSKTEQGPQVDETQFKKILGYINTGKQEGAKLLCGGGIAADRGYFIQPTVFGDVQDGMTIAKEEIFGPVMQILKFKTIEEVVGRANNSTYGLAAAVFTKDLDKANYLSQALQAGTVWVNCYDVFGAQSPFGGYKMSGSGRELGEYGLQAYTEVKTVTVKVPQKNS
Method: The kinetic data were analyzed by standard graphical methods.

golden hamsters = assay: Dose effect on free choice ethanol intake in golden hamsters, i.p.; assay type: in vivo, golden hamster; details: i.p.
Source text: It is common practice in quantitative drug studies with rodents to use intraperitoneal (i.p.) administration to deliver drug doses accurately (Goodman and Gilman, 1975, The Pharmacological Basis of Therapeutics, 5th ed., Macmillan, N.Y., p. 8). In particular, this method avoids variability introduced by technical difficulties of oral administration via feeding (full versus empty stomach, etc.), variations in drug transport in the gastrointestinal tract (variations in intestinal fauna and flora, individual variations in absorption rate expected of outbred animals, etc.) and other factors. […] As a control 1 ml of sterile saline was injected i.p. daily during the baseline period (typically 7-9 days) that establishes drinking preference without the drug. Saline injection i.p. had no effect on the drinking behavior of golden hamsters. Ethanol was provided as a 20% solution. Hamsters could be used more than once (but were not used more than three times) in a cycle of baseline saline injections followed by drug injections, each cycle with the drug at a different dose.
The response to daidzin treatment was computed as:
% Response=(Vo -Vd)×100/Vo

ALDH-II [3] = target: T1, ALDH-II; assay: Inhibition kinetics of ALDH-II, initial velocity method, formaldehyde as substrate
Method: The inhibition kinetics were studied by the initial velocity method (Dixon and Webb, 1979, Enzymes, 3rd ed., Longman, Great Britain). […] The initial reaction rates were measured in a pH 9.5 assay medium 0.1 11 in glycine-NaOH, 0. […] The enzyme reaction rates were followed by monitoring the production of NADH at 340 nm (ε-6.22 mM^-1 cm^-1) with a Varian Cary 219 spectrophotometer thermostated at 25° C. The kinetic data were analyzed by standard graphical methods.

ALDH-II [4] = target: T1, ALDH-II; assay: Competitive inhibition of ALDH-II with acetaldehyde as substrate; assay type: biochemical; parameters: A liver sample (50 g wet weight) with the usual Caucasian ALDH phenotype (both ALDH-I and ALDH-II present); from tissue; host or cells: human liver (autopsy), purified by CM-52, AMP-agarose and DEAE HPLC
mice = details: subcutaneous in propylene glycol; cited from earlier work

O=c1c(-c2ccc(O)cc2)coc2cc(O[C@@H]3O[C@H](CO)[C@@H](O)[C@H](O)[C@H]3O)ccc12 [Daidzin, 7-glucoside of daidzein]
IC50 (ALDH-II [1]): 20 µM | solubility (physchem; 10% aqueous polyvinylpyrrolidone 40, organic solvent or mixture): ~2000 µM (≈ 833 µg/mL) | solubility (physchem; 20% peg 400 in water, organic solvent or mixture): 4500 µM (≈ 1870 µg/mL) | solubility (physchem; 20% peg/water, beta-cyclodextrin, organic solvent or mixture): 9400 µM (≈ 3910 µg/mL) | solubility (physchem; saturated digitonin solution): ~2000 µM (≈ 833 µg/mL) | solubility (physchem; water): 200 µM (≈ 83.3 µg/mL) | ADH inhibition (ADH isozymes): inhibits the second but not the first step in human ethanol metabolism | solubility in polyethylene glycol 400 ([2]; PEG 400): highly soluble | solubility in glycerol ([2]; glycerol): highly soluble | antifebrile (hypothermic) effect (rats): no antifebrile (hypothermic) effect | more effective inhibition of human ALDH-I than of human ALDH-II (ALDH-I): 500 fold | suppression of alcohol intake at 5 mg/day (golden hamsters; 20% ethanol, 5 mg/day): 20% | suppression of alcohol intake at 10 mg/day (golden hamsters; 20% ethanol, 10 mg/day): 50% | suppression of alcohol intake at 30 mg/day (golden hamsters; 20% ethanol, 30 mg/day): 80% | EC50 or half-maximal response, suppression of alcohol intake (golden hamsters; golden hamsters): 10 mg/day | Ki (ALDH-II [3]): 20 µM | Ki (ALDH-II [4]): 28 µM | spasmolytic effect (mice): no spasmolytic effect
